Experimental data published in patent US20080200442A1, “Compositions and Methods for Treating, Reducing, Ameliorating, or Preventing Infections of the Ear or Upper Respiratory Tract” (priority 2007, published 2008).

These molecules were tested on Salmonella typhimurium (TD) (assay: In vitro anti-bacterial activity (MIC90), Gram-negative reference strains). Conditions: not given.
Format: cell-based
Description: Anti-bacterial activity of the compound having Formula III was tested against several Gram-negative reference bacteria strains and compared to the anti-bacterial activity of three commercially available antibiotics (nadifloxacin, ofloxacin, and sparfloxacin).

Row | Compound | MIC90
1 | NC1CCCCN(c2c(F)cc3c(=O)c(C(=O)O)cn(C4CC4)c3c2Cl)C1 (stereo not drawn) [Compound Having Formula III] | 0.05 mμg/mL

The molecules below were run on Bacillis subtilis (ATCC 6633) (assay: In vitro anti-bacterial activity (MIC90), Gram-positive reference strains). Conditions: not given.
Format: cell-based
Description: (§1) Anti-bacterial activity of the compound having Formula III was tested against several Gram-negative reference bacteria strains and compared to the anti-bacterial activity of three commercially available antibiotics (nadifloxacin, ofloxacin, and sparfloxacin). The results are shown in Table 2 as MIC90 values (minimum concentration of the active compound required to inhibit ninety percent of the growth of a specified pathogen, in μg/ml). Anti-bacterial activity of the compound having Formula III was tested against several Gram-positive reference bacteria strains and compared to the anti-bacterial activity of three commercially available antibiotics (nadifloxacin, ofloxacin, and sparfloxacin).

Row | Compound | MIC90
2 | NC1CCCCN(c2c(F)cc3c(=O)c(C(=O)O)cn(C4CC4)c3c2Cl)C1 (stereo not drawn) [Compound Having Formula III] | 0.012 µg/mL

The molecules below were run on Sarcina lutea (ATCC 9341) in the same assay as above. Conditions: Micrococcus luteus, ATCC9341.
Format: cell-based
Description: as §1

Row | Compound | MIC90
3 | NC1CCCCN(c2c(F)cc3c(=O)c(C(=O)O)cn(C4CC4)c3c2Cl)C1 (stereo not drawn) [Compound Having Formula III] | 0.1 µg/mL

What follows are molecules tested on Staphylococcus aureus (ATCC 25933) in the same assay as above. Conditions: ATCC25933.
Format: cell-based
Description: as §1

Row | Compound | MIC90
4 | NC1CCCCN(c2c(F)cc3c(=O)c(C(=O)O)cn(C4CC4)c3c2Cl)C1 (stereo not drawn) [Compound Having Formula III] | 0.05 µg/mL

The molecules below were run on Staphylococcus aureus (FDA 209P) in the same assay as above. Conditions: FDA209P.
Format: cell-based
Description: as §1

Row | Compound | MIC90
5 | NC1CCCCN(c2c(F)cc3c(=O)c(C(=O)O)cn(C4CC4)c3c2Cl)C1 (stereo not drawn) [Compound Having Formula III] | 0.012 µg/mL

What follows are molecules tested on Staphylococcus aureus (Smith) in the same assay as above. Conditions: not given.
Format: cell-based
Description: as §1

Row | Compound | MIC90
6 | NC1CCCCN(c2c(F)cc3c(=O)c(C(=O)O)cn(C4CC4)c3c2Cl)C1 (stereo not drawn) [Compound Having Formula III] | 0.006 µg/mL

The molecules below were run on Staphylococcus epidermidis (ATCC 12228) in the same assay as above. Conditions: ATCC12228.
Format: cell-based
Description: as §1

Row | Compound | MIC90
7 | NC1CCCCN(c2c(F)cc3c(=O)c(C(=O)O)cn(C4CC4)c3c2Cl)C1 (stereo not drawn) [Compound Having Formula III] | 0.05 µg/mL

The molecules below were run on Streptococcus faecalis (ATCC 29212) in the same assay as above. Conditions: Enterococcus faecalis, ATCC29212.
Format: cell-based
Description: as §1

Row | Compound | MIC90
8 | NC1CCCCN(c2c(F)cc3c(=O)c(C(=O)O)cn(C4CC4)c3c2Cl)C1 (stereo not drawn) [Compound Having Formula III] | 0.2 µg/mL

These molecules were tested on Streptococcus faecalis (IFO 12964) in the same assay as above. Conditions: Enterococcus faecalis, IFO12964.
Format: cell-based
Description: as §1

Row | Compound | MIC90
9 | NC1CCCCN(c2c(F)cc3c(=O)c(C(=O)O)cn(C4CC4)c3c2Cl)C1 (stereo not drawn) [Compound Having Formula III] | 0.1 µg/mL

Each molecule was assayed on Streptococcus pneniae (IID 554) in the same assay as above. Conditions: IID554.
Format: cell-based
Description: as §1

Row | Compound | MIC90
10 | NC1CCCCN(c2c(F)cc3c(=O)c(C(=O)O)cn(C4CC4)c3c2Cl)C1 (stereo not drawn) [Compound Having Formula III] | 0.2 µg/mL

These molecules were tested on Streptococcus pneumoniae (IID 553) in the same assay as above. Conditions: IID553.
Format: cell-based
Description: as §1

Row | Compound | MIC90
11 | NC1CCCCN(c2c(F)cc3c(=O)c(C(=O)O)cn(C4CC4)c3c2Cl)C1 (stereo not drawn) [Compound Having Formula III] | 0.1 µg/mL

The molecules below were run on Streptococcus pyogenes (Cook) in the same assay as above. Conditions: not given.
Format: cell-based
Description: as §1

Row | Compound | MIC90
12 | NC1CCCCN(c2c(F)cc3c(=O)c(C(=O)O)cn(C4CC4)c3c2Cl)C1 (stereo not drawn) [Compound Having Formula III] | 0.1 µg/mL

These molecules were tested on Streptococcus pyogenes (IID 698) in the same assay as above. Conditions: IID698.
Format: cell-based
Description: as §1

Row | Compound | MIC90
13 | NC1CCCCN(c2c(F)cc3c(=O)c(C(=O)O)cn(C4CC4)c3c2Cl)C1 (stereo not drawn) [Compound Having Formula III] | 0.1 µg/mL

These molecules were tested on Staphylococcus aureus (ATCC 33591) (assay: In vitro anti-bacterial activity (MIC90), methicillin-resistant Staphylococcus aureus isolates). Conditions: ATCC33591; methicillin-resistant Staphylococcus aureus (ATCC 33591).
Format: cell-based
Description: (§2) Anti-bacterial activity of the compound having Formula III was tested against several Gram-negative reference bacteria strains and compared to the anti-bacterial activity of three commercially available antibiotics (nadifloxacin, ofloxacin, and sparfloxacin). The results are shown in Table 2 as MIC90 values (minimum concentration of the active compound required to inhibit ninety percent of the growth of a specified pathogen, in μg/ml).
(§3) Anti-bacterial activity of the compound having Formula III was tested against some methicillin-resistant Staphylococcus aureus bacteria strains and compared to the anti-bacterial activity of three commercially available antibiotics (nadifloxacin, ofloxacin, and sparfloxacin).

Row | Compound | MIC90
14 | NC1CCCCN(c2c(F)cc3c(=O)c(C(=O)O)cn(C4CC4)c3c2Cl)C1 (stereo not drawn) [Compound Having Formula III] | 0.012 µg/mL

These molecules were tested on Staphylococcus aureus (ATCC 33592) in the same assay as above. Conditions: ATCC33592; methicillin-resistant Staphylococcus aureus (ATCC 33592).
Format: cell-based
Description: as §2, §3

Row | Compound | MIC90
15 | NC1CCCCN(c2c(F)cc3c(=O)c(C(=O)O)cn(C4CC4)c3c2Cl)C1 (stereo not drawn) [Compound Having Formula III] | 0.05 µg/mL

Each molecule was assayed on Staphylococcus aureus (ATCC 33593) in the same assay as above. Conditions: ATCC33593; methicillin-resistant Staphylococcus aureus (ATCC 33593).
Format: cell-based
Description: as §2, §3

Row | Compound | MIC90
16 | NC1CCCCN(c2c(F)cc3c(=O)c(C(=O)O)cn(C4CC4)c3c2Cl)C1 (stereo not drawn) [Compound Having Formula III] | 0.012 µg/mL

These molecules were tested on Staphylococcus aureus (No. 395) in the same assay as above. Conditions: methicillin-resistant Staphylococcus aureus (No. 395).
Format: cell-based
Description: as §2, §3

Row | Compound | MIC90
17 | NC1CCCCN(c2c(F)cc3c(=O)c(C(=O)O)cn(C4CC4)c3c2Cl)C1 (stereo not drawn) [Compound Having Formula III] | 0.006 µg/mL

Each molecule was assayed on Staphylococcus aureus (No. 415) in the same assay as above. Conditions: methicillin-resistant Staphylococcus aureus (No. 415).
Format: cell-based
Description: as §2, §3

Row | Compound | MIC90
18 | NC1CCCCN(c2c(F)cc3c(=O)c(C(=O)O)cn(C4CC4)c3c2Cl)C1 (stereo not drawn) [Compound Having Formula III] | 0.05 µg/mL

The molecules below were run on Staphylococcus aureus (No. 419) in the same assay as above. Conditions: methicillin-resistant Staphylococcus aureus (No. 419).
Format: cell-based
Description: as §2, §3

Row | Compound | MIC90
19 | NC1CCCCN(c2c(F)cc3c(=O)c(C(=O)O)cn(C4CC4)c3c2Cl)C1 (stereo not drawn) [Compound Having Formula III] | 0.1 µg/mL

The molecules below were run on Staphylococcus aureus (No. 420) in the same assay as above. Conditions: methicillin-resistant Staphylococcus aureus (No. 420).
Format: cell-based
Description: as §2, §3

Row | Compound | MIC90
20 | NC1CCCCN(c2c(F)cc3c(=O)c(C(=O)O)cn(C4CC4)c3c2Cl)C1 (stereo not drawn) [Compound Having Formula III] | 0.1 µg/mL

What follows are molecules tested on Staphylococcus aureus (No. 421) in the same assay as above. Conditions: methicillin-resistant Staphylococcus aureus (No. 421).
Format: cell-based
Description: as §2, §3

Row | Compound | MIC90
21 | NC1CCCCN(c2c(F)cc3c(=O)c(C(=O)O)cn(C4CC4)c3c2Cl)C1 (stereo not drawn) [Compound Having Formula III] | 0.2 µg/mL
